This is an account of results in patent US4704462A, “Substituted 2,3,3a,6-tetrahydro-6-oxobenzofuran derivative useful as PAF antagonist” (Merck & Co., Inc., priority 1985, dated 1987).

One assay deals with T1, PAF Receptor (Oryctolagus cuniculus, UniProt G1TEI7).
T1 construct: from tissue
Kind of assay: % Inhibition of PAF Receptor (published bioassay, Table I). The format is binding. The source says:
See. T. Y. Shen et al., Proc. Nat. Acad. Sci., U.S.A., 82, 672 (1985); and S. B. Hwang et al., Biochem., 22, 4756 (1983).
% Inhibition of PAF Receptor by the Compounds of […]

The test system of a further assay is man. The settings on record: in man, 0.1 μg per site; cited from earlier work.

T1 sequence (G1TEI7 1-342): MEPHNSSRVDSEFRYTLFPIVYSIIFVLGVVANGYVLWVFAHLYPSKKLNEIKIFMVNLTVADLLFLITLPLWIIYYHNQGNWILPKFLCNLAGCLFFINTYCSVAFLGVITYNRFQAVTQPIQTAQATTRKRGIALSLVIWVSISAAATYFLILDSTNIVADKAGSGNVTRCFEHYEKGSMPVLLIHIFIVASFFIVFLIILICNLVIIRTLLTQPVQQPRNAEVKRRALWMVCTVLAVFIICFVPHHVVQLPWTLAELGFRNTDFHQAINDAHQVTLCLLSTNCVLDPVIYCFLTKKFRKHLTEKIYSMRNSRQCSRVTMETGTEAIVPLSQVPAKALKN

On to `CCCC1=C[C@@]2(OC)C(=CC1=O)O[C@H](c1ccc(OC)c(OC)c1)[C@@H]2C` [(2S,3S,3aS)-2-(3,4-dimethoxyphenyl)-3a-methoxy-3-methyl-5-n-propyl-2,3,3a,6-tetrahydro-6-oxo-benzofuran], for which the inhibition at 0.03 µM against PAF Receptor (Dose 0.03 μM) lay within 30 to 33%. On PAF Receptor (Dose 0.1 μM), this molecule gave an inhibition at 0.1 µM of 58 to 59%. For the same molecule, at PAF Receptor, the inhibition at 0.3 µM was 73 to 76%, the inhibition at 1 µM is 83 to 89% and the inhibition at 5 µM lay within 90 to 95%.
With `C=CCC1=C[C@@]2(OCC)C(=CC1=O)O[C@H](c1ccc(OC)c(OC)c1)[C@@H]2C` [(2S,3S,3aS)-5-allyl-2-(3,4-dimethoxyphenyl)-3a-ethoxy-3-methyl-2,3,3a,6-tetrahydro-6-oxo-benzofuran], on PAF Receptor, testing at 0.3 µM gave an inhibition of 42% and the inhibition at 1 µM is 68%.
At PAF Receptor, `C=CCC1=C[C@]2(OCC)C(=CC1=O)O[C@H](c1ccc(OC)c(OC)c1)[C@@H]2C` [(2S,3S,3aR)-5-allyl-2-(3,4-dimethoxyphenyl)-3a-ethoxy-3-methyl-2,3,3a,6-tetrahydro-6-oxo-benzofuran] returned an inhibition at 1 µM of 45% and an inhibition at 5 µM of 73%.
For “1-O-hexadecyl/octadecyl-2-O-acetyl-sn-glycero-3-phosphorylcholine [PAF]”, the “inflammatory response to intradermal PAF” value in the assay with man is reported as “biphasic inflammatory response”.
At PAF Receptor, `C=CCC1=C2OC(c3ccc(OC)c(OC)c3)C(C)C2(OC)C=CC1=O` (centres unmarked) displayed an inhibition at 1 µM of 26% and an inhibition at 5 µM of 57%.
On the same counts, the results for `CCCC1=C[C@]2(OC)C(=CC1=O)O[C@H](c1ccc(OC)c(OC)c1)[C@@H]2C` (single isomer, unassigned) are 31% and 61%.
